Experimental data: patent US11420958B2, “Aryl and heteroaryl substituted indole compounds” (BRISTOL-MYERS SQUIBB COMPANY, priority 2017, dated 2022)

What was measured:
Format in all cases: cell-based
human TLR8 = human TLR8 (Homo sapiens (Human), UniProt Q9NR97); experiment: TLR8 inhibition reporter assay (HEK-Blue, SEAP); conditions: HEK-Blue cells overexpressing human TLR8, R848 15.9 μM stimulation
Summary of the method: (§1)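 Reporter cells, NF-κB/AP-1-driven SEAP; cmpd 0.05 nM–50 μM final, 30 min RT pre-treat; stim gardiquimod 7.5 μM (TLR7), R848 15.9 μM (TLR8), ODN2006 5 nM (TLR9); 22 h 37 °C; % inhibition of SEAP signal.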

human TLR7 = human TLR7 (Homo sapiens (Human), UniProt Q9NYK1); experiment: TLR7 inhibition reporter assay (HEK-Blue, SEAP); conditions: HEK-Blue cells overexpressing human TLR7, gardiquimod 7.5 μM stimulation
Summary of the method: as §1

human TLR9 = human TLR9 (Homo sapiens (Human), UniProt Q9NR96); experiment: TLR9 inhibition reporter assay (HEK-Blue, SEAP); conditions: HEK-Blue cells overexpressing human TLR9, ODN2006 5 nM stimulation
Summary of the method: as §1

Sequence of human TLR9 (Q9NR96 26-1032): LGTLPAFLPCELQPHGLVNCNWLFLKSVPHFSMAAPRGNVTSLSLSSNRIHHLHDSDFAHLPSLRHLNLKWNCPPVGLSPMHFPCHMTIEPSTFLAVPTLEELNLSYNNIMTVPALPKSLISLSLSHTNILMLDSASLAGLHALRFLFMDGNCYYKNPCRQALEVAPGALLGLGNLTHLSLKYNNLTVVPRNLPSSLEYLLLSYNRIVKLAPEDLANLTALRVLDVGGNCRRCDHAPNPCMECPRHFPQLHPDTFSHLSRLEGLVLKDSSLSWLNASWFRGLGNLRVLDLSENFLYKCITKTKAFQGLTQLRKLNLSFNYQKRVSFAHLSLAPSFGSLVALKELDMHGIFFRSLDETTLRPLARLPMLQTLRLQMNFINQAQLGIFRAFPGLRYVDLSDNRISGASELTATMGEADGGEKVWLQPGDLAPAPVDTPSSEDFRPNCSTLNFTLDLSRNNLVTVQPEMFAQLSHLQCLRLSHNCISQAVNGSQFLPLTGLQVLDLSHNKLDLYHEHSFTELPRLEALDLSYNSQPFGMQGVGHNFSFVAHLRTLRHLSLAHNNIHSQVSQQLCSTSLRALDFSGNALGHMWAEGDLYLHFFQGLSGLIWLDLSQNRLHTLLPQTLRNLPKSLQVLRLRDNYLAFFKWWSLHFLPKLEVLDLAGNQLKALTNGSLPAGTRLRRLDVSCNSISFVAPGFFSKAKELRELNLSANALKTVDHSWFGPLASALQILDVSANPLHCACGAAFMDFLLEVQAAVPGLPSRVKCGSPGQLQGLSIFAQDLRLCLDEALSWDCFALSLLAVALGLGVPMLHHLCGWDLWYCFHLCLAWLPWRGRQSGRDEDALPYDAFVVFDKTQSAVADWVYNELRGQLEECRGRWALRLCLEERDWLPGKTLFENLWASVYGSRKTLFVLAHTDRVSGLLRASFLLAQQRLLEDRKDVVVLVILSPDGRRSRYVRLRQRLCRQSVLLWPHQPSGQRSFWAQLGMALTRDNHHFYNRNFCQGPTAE
Sequence of human TLR8 (Q9NR97 27-1041): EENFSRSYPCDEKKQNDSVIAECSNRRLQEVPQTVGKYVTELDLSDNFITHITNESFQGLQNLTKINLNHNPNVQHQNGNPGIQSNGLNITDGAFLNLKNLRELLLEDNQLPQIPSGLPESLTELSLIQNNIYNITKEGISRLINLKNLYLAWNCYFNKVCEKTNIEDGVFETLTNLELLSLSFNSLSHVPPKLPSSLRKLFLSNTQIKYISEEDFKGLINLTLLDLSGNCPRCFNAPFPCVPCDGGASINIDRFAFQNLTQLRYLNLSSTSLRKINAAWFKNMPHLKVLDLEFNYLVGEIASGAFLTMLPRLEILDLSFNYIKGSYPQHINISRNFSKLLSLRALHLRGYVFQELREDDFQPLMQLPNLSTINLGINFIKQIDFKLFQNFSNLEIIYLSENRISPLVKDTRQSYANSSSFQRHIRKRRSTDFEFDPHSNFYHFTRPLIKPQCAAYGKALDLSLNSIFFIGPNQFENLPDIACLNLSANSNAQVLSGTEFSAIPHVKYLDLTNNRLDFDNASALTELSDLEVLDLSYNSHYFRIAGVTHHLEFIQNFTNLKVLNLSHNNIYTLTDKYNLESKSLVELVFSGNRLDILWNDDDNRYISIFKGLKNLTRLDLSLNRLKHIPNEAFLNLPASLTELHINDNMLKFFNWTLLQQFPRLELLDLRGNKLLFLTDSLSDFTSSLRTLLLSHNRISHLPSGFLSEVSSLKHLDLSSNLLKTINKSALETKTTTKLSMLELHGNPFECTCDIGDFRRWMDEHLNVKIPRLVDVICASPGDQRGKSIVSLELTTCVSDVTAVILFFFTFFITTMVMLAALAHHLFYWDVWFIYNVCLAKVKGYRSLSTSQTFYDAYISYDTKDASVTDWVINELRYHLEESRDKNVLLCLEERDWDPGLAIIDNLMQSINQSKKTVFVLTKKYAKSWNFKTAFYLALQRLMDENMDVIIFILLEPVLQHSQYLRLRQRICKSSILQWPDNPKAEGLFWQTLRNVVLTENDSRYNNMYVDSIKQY
Sequence of human TLR7 (Q9NYK1 27-1049): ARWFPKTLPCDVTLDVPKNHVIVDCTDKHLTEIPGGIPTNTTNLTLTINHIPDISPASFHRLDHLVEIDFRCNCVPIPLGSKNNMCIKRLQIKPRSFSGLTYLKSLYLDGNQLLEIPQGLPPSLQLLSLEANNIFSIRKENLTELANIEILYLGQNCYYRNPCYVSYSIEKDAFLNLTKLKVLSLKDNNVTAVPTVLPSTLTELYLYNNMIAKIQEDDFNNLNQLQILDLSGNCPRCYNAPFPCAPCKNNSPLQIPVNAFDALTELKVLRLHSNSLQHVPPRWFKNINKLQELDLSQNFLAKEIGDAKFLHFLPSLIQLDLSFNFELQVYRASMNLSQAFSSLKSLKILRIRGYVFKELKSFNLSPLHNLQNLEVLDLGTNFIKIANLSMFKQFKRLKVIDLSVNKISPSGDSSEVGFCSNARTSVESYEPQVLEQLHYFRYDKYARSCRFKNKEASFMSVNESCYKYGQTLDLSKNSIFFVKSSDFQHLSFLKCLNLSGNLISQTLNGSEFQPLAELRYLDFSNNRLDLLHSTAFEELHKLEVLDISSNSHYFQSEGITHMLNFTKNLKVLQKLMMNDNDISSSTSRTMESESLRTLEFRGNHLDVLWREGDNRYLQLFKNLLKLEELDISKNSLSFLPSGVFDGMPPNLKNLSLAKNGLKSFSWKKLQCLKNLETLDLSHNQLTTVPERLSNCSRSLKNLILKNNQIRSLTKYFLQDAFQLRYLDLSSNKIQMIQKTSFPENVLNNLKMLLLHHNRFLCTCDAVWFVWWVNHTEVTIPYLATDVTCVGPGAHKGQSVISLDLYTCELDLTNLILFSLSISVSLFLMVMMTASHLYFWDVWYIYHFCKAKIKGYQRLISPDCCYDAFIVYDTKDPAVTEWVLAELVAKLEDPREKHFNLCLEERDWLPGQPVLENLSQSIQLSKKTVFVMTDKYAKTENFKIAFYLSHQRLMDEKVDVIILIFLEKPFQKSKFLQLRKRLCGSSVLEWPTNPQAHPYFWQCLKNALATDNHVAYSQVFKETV

Row | SMILES | IC50 (human TLR8) | IC50 (human TLR7) | IC50 (human TLR9)
1 | CNCCNc1ccc(-c2ccc3[nH]c(-c4cc(C)nc(C)c4)c(C(C)C)c3c2)cn1 [Example 239, N1-(5-(2-(2,6-dimethylpyridin-4-yl)-3-isopropyl-1H-indol-5-yl)pyridin-2-yl)-N2-methylethane-1,2-diamine] | 2.2 nM | 4.8 nM | 589 nM
2 | Cc1cc(-c2[nH]c3ccc(-c4nnc(C(=O)N5CCC(NC(C)C)CC5)o4)cc3c2C(C)C)cc(C)n1 [Example 240, (5-(2-(2,6-dimethylpyridin-4-yl)-3-isopropyl-1H-indol-5-yl)-1,3,4-oxadiazol-2-yl)(4-(isopropylamino)piperidin-1-yl)methanone] | 7.5 nM | 39 nM | 367 nM
3 | CC(C)c1c(-c2ccc3nccn3c2)[nH]c2ccc(-c3nnc(C(=O)NC4CCN(C(C)C)CC4)o3)cc12 [Example 241, 5-(2-(imidazo[1,2-a]pyridin-6-yl)-3-isopropyl-1H-indol-5-yl)-N-(1-isopropylpiperidin-4-yl)-1,3,4-oxadiazole-2-carboxamide] | 43 nM | 43 nM | 306 nM
4 | CC(C)c1c(-c2ccc3nccn3c2)[nH]c2ccc(-c3nnc(C(=O)NCCN(C)C)o3)cc12 [Example 242, N-(2-(dimethylamino)ethyl)-5-(2-(imidazo[1,2-a]pyridin-6-yl)-3-isopropyl-1H-indol-5-yl)-1,3,4-oxadiazole-2-carboxamide] | 30 nM | 22 nM | 306 nM
5 | FC(F)Cc1c(-c2ccnc3[nH]ncc23)[nH]c2ccc(-c3nnc([C@@H]4CCCNC4)o3)cc12 [Example 243, (R)-2-(3-(2,2-difluoroethyl)-2-(1H-pyrazolo[3,4-b]pyridin-4-yl)-1H-indol-5-yl)-5-(piperidin-3-yl)-1,3,4-oxadiazole] | 1300 nM | 2280 nM | 3260 nM
6 | Cc1cc(-c2[nH]c3ccc(-c4nnc([C@@H]5CCCN(C(C)C)C5)o4)cc3c2C(C)C)cc(C)n1 [Example 245, (R)-2-(2-(2,6-dimethylpyridin-4-yl)-3-isopropyl-1H-indol-5-yl)-5-(1-isopropylpiperidin-3-yl)-1,3,4-oxadiazole] | 1.5 nM | 5.4 nM | 304 nM
7 | Cc1cc(-c2[nH]c3ccc(-c4ccc(N(C)C)nc4)cc3c2C(C)C)ccn1 [Example 246, 5-(3-isopropyl-2-(2-methylpyridin-4-yl)-1H-indol-5-yl)-N,N-dimethylpyridin-2-amine] | 21 nM | 56 nM | > 50000 nM
8 | Cc1cc(-c2[nH]c3ccc(-c4ccc(NC(C)C)nc4)cc3c2C(C)C)ccn1 [Example 247, N-isopropyl-5-(3-isopropyl-2-(2-methylpyridin-4-yl)-1H-indol-5-yl)pyridin-2-amine] | 6.4 nM | 84 nM | 5540 nM
9 | Cc1cc(-c2[nH]c3ccc(-c4ccc(NC(C)C)nc4)cc3c2C(C)C)cc(C)n1 [Example 248, 5-(2-(2,6-dimethylpyridin-4-yl)-3-isopropyl-1H-indol-5-yl)-N-isopropylpyridin-2-amine] | 2.6 nM | 20 nM | 4070 nM
10 | Cc1cc(-c2[nH]c3ccc(-c4nnc(C5CN6CCC5CC6)o4)cc3c2C(C)C)cc(C)n1 (stereo not drawn) [Example 250, 2-(2-(2,6-dimethylpyridin-4-yl)-3-isopropyl-1H-indol-5-yl)-5-(quinuclidin-3-yl)-1,3,4-oxadiazole] | 2.1 nM | 3.4 nM | 113 nM
11 | Cc1cc(-c2[nH]c3ccc(-c4cc5c(s4)CN(C)CC5)cc3c2C(C)C)ccn1 [Example 251, 2-(3-isopropyl-2-(2-methylpyridin-4-yl)-1H-indol-5-yl)-6-methyl-4,5,6,7-tetrahydrothieno[2,3-c]pyridine] | 1.4 nM | 35 nM | 484 nM
